ED50 data for 38 compounds are collected here from patent publication US8269043B2, “Bicyclic aryl sphingosine 1-phosphate analogs” (Biogen Idec MA Inc., priority 2008, dated 2012).

As usually defined, the ED50 is the dose that gives a 50% effect, or the effect in half of the subjects. A lower ED50 goes with greater potency.

This test deals with circulating lymphocytes. Put plainly: Lymphopenia assay: circulating lymphocytes after oral gavage. As to conditions: Mus musculus, Lymphocyte, po, C57bl/6 male mice, oral gavage 0.5 and 5 mg/kg in 30% HPCD, blood 5 and 24 hours after administration. The test is classed as in vivo. How it is done:
Measurement of circulating lymphocytes: Compounds were dissolved in 30% HPCD. Mice (C57bl/6 male, 6-10 week-old) were administered 0.5 and 5 mg/kg of a compound via oral gavage. 30% HPCD was included as a negative control.
Blood was collected from the retro-orbital sinus 5 and 24 hours after drug administration under short isoflurane anesthesia. Whole blood samples were subjected to hematology analysis. Peripheral lymphocyte counts were determined using an automated analyzer (HEMAVET™ 3700). Three mice were used to assess the lymphocyte depletion activity of each compound screened.
Compounds of formula (I) induced full lymphopenia at times as short as 3 hours or less to as long as 48 hours or more; for example, 4 to 36 hours, or 5 to 24 hours. In some cases, a compound of formula induced full lymphopenia at 5 hours and partial lymphopenia at 24 hours. The dosage required to induce lymphopenia can be in the range of, e.g., 0.001 mg/kg to 100 mg/kg; or 0.01 mg/kg to 10 mg/kg. The dosage can be 10 mg/kg or less, such as 5 mg/kg or less, 1 mg/kg or less, or 0.1 mg/kg or less

Structures are written as SMILES.

Regarding `CN[C@@](C)(CO)c1ccc2cc(OC3CCC(C(C)(C)C)CC3)ccc2c1` (stereo partly drawn) [Example 112, (R)-2-[6-(4-tert-butyl-cyclohexyloxy)-naphthalen-2-yl]-2-methylamino-propan-1-ol], the ED50 was in the range of 0.5 to 5 mg/kg.
Compound `C[C@@]1(c2ccc3c(C(F)(F)F)c(O)ccc3c2)COC(=O)N1` [Example 130, (R)-4-(6-hydroxy-5-(trifluoromethyl)naphthalen-2-yl)-4-methyloxazolidin-2-one] gave an ED50 greater than 5 mg/kg.
As for `CC(C)(C)[C@H]1CC[C@H](Oc2ccc3cc([C@]4(C)COC(=O)N4)ccc3c2C(F)(F)F)CC1` [Example 131, (R)-4-(6-(trans-4-tert-butylcyclohexyloxy)-5-(trifluoromethyl)naphthalen-2-yl)-4-methyloxazolidin-2-one], the ED50 was less than 0.5 mg/kg.
The result for `C[C@](N)(CO)c1ccc2cc(OC3CCC4(CCCCC4)CC3)ccc2c1` [Example 133, (2R)-2-amino-2-(6-(spiro[5.5]undecan-3-yloxy)naphthalen-2-yl)propan-1-ol] reads 0.5 to 5 mg/kg; that for `C[C@](N)(CO)c1ccc2c(C(F)(F)F)c(OC3CCC4(CCCCC4)CC3)ccc2c1` [Example 139, (2R)-2-amino-2-(6-(spiro[5.5]undecan-3-yloxy)-5-(trifluoromethyl)naphthalen-2-yl)propan-1-ol], less than 0.5 mg/kg; that for `CC(C)(C)C1CCC(Cc2ccc3cc([C@@](C)(N)CO)ccc3c2)CC1` (stereo partly drawn) [Example 146, (R)-2-amino-2-(6-((4-tert-butylcyclohexyl)methyl)naphthalen-2-yl)propan-1-ol], 0.5 to 5 mg/kg.
For `CC(C)(C)[C@H]1CC[C@H](Oc2ccc3cc(C4(N)COC4)ccc3c2)CC1` [Example 151, 3-(6-(trans-4-tert-Butylcyclohexyloxy)naphthalen-2-yl)oxetan-3-amine] the value was 0.5 to 5 mg/kg; for `CC(C)(C)[C@H]1CC[C@H](Oc2ccc3cc(C4(N)COC4)ccc3c2C(F)(F)F)CC1` [Example 153, 3-(6-(trans-4-tert-butylcyclohexyloxy)-5-(trifluoromethyl)naphthalen-2-yl)oxetan-3-amine], less than 0.5 mg/kg.
For `C[C@](N)(CO)c1ccc2c(C(F)(F)F)c(O[C@H]3CC[C@@H](C4CCCCC4)CC3)ccc2c1` [Example 160, (R)-2-Amino-2-(6-(cis-4-cyclohexylcyclohexyloxy)-5-(trifluoromethyl)naphthalen-2-yl)propan-1-ol] the value was greater than 5 mg/kg; for `C[C@](N)(CO)c1ccc2c(C(F)(F)F)c(O[C@H]3CC[C@H](C4CCCCC4)CC3)ccc2c1` [Example 163, (R)-2-Amino-2-(6-(trans-4-cyclohexylcyclohexyloxy)-5-(trifluoromethyl)naphthalen-2-yl)propan-1-ol], less than 0.5 mg/kg; for `CC(C)[C@H]1CC[C@@H](Oc2ccc3cc([C@@](C)(N)CO)ccc3c2C(F)(F)F)CC1` [Example 167, (R)-2-Amino-2-(6-(cis-4-isopropylcyclohexyloxy)-5-(trifluoromethyl)naphthalen-2-yl)propan-1-ol], less than 0.5 mg/kg.
`CC(C)[C@H]1CC[C@H](Oc2ccc3cc([C@@](C)(N)CO)ccc3c2C(F)(F)F)CC1` [Example 168, (R)-2-Amino-2-(6-(trans-4-isopropylcyclohexyloxy)-5-(trifluoromethyl)naphthalen-2-yl)propan-1-ol] gave an ED50 of less than 0.5 mg/kg.
The result for `C[C@](N)(CO)c1ccc2cc(Oc3cccc(Cl)c3)ccc2c1` [Example 172, (R)-2-Amino-2-(6-(3-chlorophenoxy)naphthalen-2-yl)propan-1-ol] reads 0.5 to 5 mg/kg; that for `C[C@](N)(CO)c1ccc2cc(Oc3ccc(Cl)cc3)ccc2c1` [Example 173, (R)-2-Amino-2-(6-(4-chlorophenoxy)naphthalen-2-yl)propan-1-ol], 0.5 to 5 mg/kg.
For `C[C@](N)(CO)c1ccc2cc(Oc3cccc(Br)c3)ccc2c1` [Example 174, (R)-2-Amino-2-(6-(3-bromophenoxy)naphthalen-2-yl)propan-1-ol] the value was greater than 5 mg/kg; for `C[C@](N)(CO)c1ccc2cc(Oc3cccc(OC(F)(F)F)c3)ccc2c1` [Example 175, (R)-2-Amino-2-(6-(3-(trifluoromethoxy)phenoxy)naphthalen-2-yl)propan-1-ol], 0.5 to 5 mg/kg; for `CCc1ccc(Oc2ccc3cc([C@@](C)(N)CO)ccc3c2)cc1` [Example 176, (R)-2-Amino-2-(6-(4-ethylphenoxy)naphthalen-2-yl)propan-1-ol], 0.5 to 5 mg/kg.
`CC(C)c1cccc(Oc2ccc3cc([C@@](C)(N)CO)ccc3c2)c1` [Example 177, (R)-2-Amino-2-(6-(3-isopropylphenoxy)naphthalen-2-yl)propan-1-ol]: the ED50 is greater than 5 mg/kg.
For `CC(C)Cc1ccc(Oc2ccc3cc([C@@](C)(N)CO)ccc3c2)cc1` [Example 178, (R)-2-Amino-2-(6-(4-isobutylphenoxy)naphthalen-2-yl)propan-1-ol] the value was less than 0.5 mg/kg; for `CC(C)(C)c1ccc(Oc2ccc3cc([C@@](C)(N)CO)ccc3c2)cc1` [Example 179, (R)-2-Amino-2-(6-(4-tert-butylphenoxy)naphthalen-2-yl)propan-1-ol], 0.5 to 5 mg/kg; for `Cc1ccc(Oc2ccc3cc([C@@](C)(N)CO)ccc3c2)cc1` [Example 180, (R)-2-Amino-2-(6-(p-tolyloxy)naphthalen-2-yl)propan-1-ol], 0.5 to 5 mg/kg.
For `C[C@](N)(CO)c1ccc2cc(Oc3ccc(C(F)(F)F)cc3)ccc2c1` [Example 181, (R)-2-Amino-2-(6-(4-(trifluoromethyl)phenoxy)naphthalen-2-yl)propan-1-ol] the value was greater than 5 mg/kg; for `CCc1ccccc1Oc1ccc2cc([C@@](C)(N)CO)ccc2c1` [Example 182, (R)-2-Amino-2-(6-(2-ethylphenoxy)naphthalen-2-yl)propan-1-ol], 0.5 to 5 mg/kg.
The result for `C[C@](N)(CO)c1ccc2cc(Oc3ccc(F)c(F)c3)ccc2c1` [Example 183, (R)-2-Amino-2-(6-(3,4-difluorophenoxy)naphthalen-2-yl)propan-1-ol] reads 0.5 to 5 mg/kg; that for `Cc1ccc(Oc2ccc3cc([C@@](C)(N)CO)ccc3c2)cc1C` [Example 184, (R)-2-Amino-2-(6-(3,4-dimethylphenoxy)naphthalen-2-yl)propan-1-ol], greater than 5 mg/kg.
In turn, `C[C@](N)(CO)c1ccc2cc(Oc3ccc(F)c(Cl)c3)ccc2c1` [Example 185, (R)-2-Amino-2-(6-(3-chloro-4-fluorophenoxy)naphthalen-2-yl)propan-1-ol] came in with an ED50 of 0.5 to 5 mg/kg.
The result for `C[C@](N)(CO)c1ccc2cc(Oc3cc(F)cc(F)c3)ccc2c1` [Example 186, (R)-2-Amino-2-(6-(3,5-difluorophenoxy)naphthalen-2-yl)propan-1-ol] reads 0.5 to 5 mg/kg; that for `Cc1cc(C)cc(Oc2ccc3cc([C@@](C)(N)CO)ccc3c2)c1` [Example 187, (R)-2-Amino-2-(6-(3,5-dimethylphenoxy)naphthalen-2-yl)propan-1-ol], 0.5 to 5 mg/kg.
For `CC(C)Oc1ccc(Oc2ccc3cc([C@@](C)(N)CO)ccc3c2)cc1` [Example 189, (R)-2-Amino-2-[6-(4-isopropoxy-phenoxy)-naphthalen-2-yl]-propan-1-ol] the value was less than 0.5 mg/kg.
For `NC(CO)(CO)c1ccc2cc(Oc3cccc(C(F)(F)F)c3)ccc2c1` [Example 191, 2-Amino-2-(6-(3-(trifluoromethyl)phenoxy)naphthalen-2-yl)propane-1,3-diol] the value was greater than 5 mg/kg; for `NC(CO)(CO)c1ccc2cc(Sc3cccc(OCc4ccccc4)c3)ccc2c1` [Example 192, 2-Amino-2-(6-(3-(benzyloxy)phenylthio)naphthalen-2-yl)propane-1,3-diol], less than 0.5 mg/kg; for `NC(CO)(CO)c1ccc2cc(Oc3cccc(OCc4ccccc4)c3)ccc2c1` [Example 194, 2-Amino-2-(6-(3-(benzyloxy)phenoxy)naphthalen-2-yl)propane-1,3-diol], less than 0.5 mg/kg.
With `CCCCCOc1cccc(Oc2ccc3cc(C(N)(CO)CO)ccc3c2)c1` [Example 196, 2-Amino-2-(6-(3-(pentyloxy)phenoxy)naphthalen-2-yl)propane-1,3-diol], the median effective dose (ED50) is less than 0.5 mg/kg.
For `NC(CO)(CO)c1ccc2cc(Oc3cccc(OCCc4ccccc4)c3)ccc2c1` [Example 197, 2-Amino-2-(6-(3-phenethoxyphenoxy)naphthalen-2-yl)propane-1,3-diol] the value was less than 0.5 mg/kg; for `CC(C)CCOc1cccc(Oc2ccc3cc(C(N)(CO)CO)ccc3c2)c1` [Example 198, 2-Amino-2-(6-(3-(isopentyloxy)phenoxy)naphthalen-2-yl)propane-1,3-diol], 0.5 to 5 mg/kg.
For `NC(CO)(CO)c1ccc2cc(Oc3cccc(OCC4CCCCC4)c3)ccc2c1` [Example 199, 2-Amino-2-(6-(3-(cyclohexylmethoxy)phenoxy)naphthalen-2-yl)propane-1,3-diol] the value was less than 0.5 mg/kg; for `NC(CO)(CO)c1ccc2cc(Oc3cccc(OCCCC(F)(F)F)c3)ccc2c1` [Example 200, 2-Amino-2-(6-(3-(4,4,4-trifluorobutoxy)phenoxy)naphthalen-2-yl)propane-1,3-diol], less than 0.5 mg/kg; for `CC(N)(CCC(=O)O)c1ccc2c(C(F)(F)F)c(O[C@H]3CC[C@H](C(C)(C)C)CC3)ccc2c1` (stereo partly drawn) [Example 211, 4-amino-4-(6-(trans-4-tert-butylcyclohexyloxy)-5-(trifluoromethyl)naphthalen-2-yl) pentanoic acid], 0.5 to 5 mg/kg.
